{"source": "patent US20040143004A1", "about": "“Metronomic dosing of taxanes” (priority 2004, published 2004)", "tested_on": "endothelial cells in MATRIGEL plugs", "protocol": "LX1 human lung tumor fragments that were maintained by serial subcutaneous passage in athymic (nu/nu) Balb/c mice were implanted subcutaneously as small fragments approximately 0.1 mm^3 in size. Tumor volume doubling time for this tumor in these studies was 2.8 days. When tumors reached the size range of 150-200 mm^3, liquid [sequence] was injected subcutaneously on the side contralateral to the tumor. Treatment was initiated 24 hours later at varying doses and schedules. Prior to implanting, [sequence] is prepared by placing solidified [sequence] on ice overnight at 4 C. in accordance with the method described by Passiniti et al. (Lab. Invest. 1992 67:519-28). At the liquid phase and while on ice, VEGF and bFGF (Peprotech, Inc. Rocky Hill, N.J.) is added to the [sequence] at final respective concentrations of 75 ng/ml and 300 ng/ml. […] These plugs were then processed for paraffin embedding and sectioned at 5 μm thickness followed by staining with hematoxylin and eosin prior to quantitative analysis. The number of endothelial cells in plugs was quantitated using the IMAGEPRO PLUS software (Media Cybernetics, Inc., Silver Spring, Md.) at a magnification of 20×. […]\nAngiogenesis is evaluated in these plugs as the number of endothelial cells migrating into plugs from compound treated groups relative to the vehicle treated group."}
{"compound": "COC(=O)O[C@@]12CO[C@@H]1C[C@H](O)[C@@]1(C)C(=O)[C@H](OC(C)=O)C3=C(C)[C@@H](OC(=O)[C@H](O)[C@@H](NC(=O)OC(C)(C)C)C(C)(C)C)C[C@@](O)([C@@H](OC(=O)c4ccccc4)[C@H]21)C3(C)C", "note": "[Formula I, 3′-tert-butyl-3′-N-tert-butyloxycarbonyl-4-deacetyl-3′-dephenyl-3′-N-debenzoyl-4-O-methoxycarbonyl-paclitaxel]", "values": [{"measurement": "dose below MTD at which anti-angiogenic effects are still observed in vivo", "setting": "fold lower than the maximum tolerated dose", "result": "approximately 13 fold"}, {"measurement": "maximum tolerated dose (MTD)", "setting": "mice, q2dx5 schedule", "result": 60, "unit": "mg/kg"}]}
